Positions of bridges follow the written chain, without caps; N, C: chain ends. Non-standard residues stand in square brackets, D forms with d. Residues, ends and D or L forms follow the SMILES beside them. *: point of attachment. Trp(7-(3-AcNH-Ph)) = CC(=O)Nc1cccc(-c2cccc3c(C[C@H](N)C(=O)O)c[nH]c23)c1; Me3N+(CH2)2O(CH2)2O(CH2)2CO = C[N+](C)(C)CCOCCOCCC(=O)*; Trp(7-Me) = Cc1cccc2c(C[C@H](N)C(=O)O)c[nH]c12; dLys(Me3) = C[N+](C)(C)CCCC[C@@H](N)C(=O)O; 3Pal(5-Me) = Cc1cncc(C[C@H](N)C(=O)O)c1; 2Nal = N[C@@H](Cc1ccc2ccccc2c1)C(=O)O; AEF = NCCOc1ccc(C[C@H](N)C(=O)O)cc1; 3Pal = N[C@@H](Cc1cccnc1)C(=O)O; Ethyl(2-guanidino) = N=C(N)NCC*; Lys(Me) = CNCCCC[C@H](N)C(=O)O; Pen = CC(C)(S)[C@H](N)C(=O)O; Thp = NC1(C(=O)O)CCOCC1; PEG2 = NCCOCCOCCC(=O)O; X3 = C[N+](C)(C)CCCCC*; Sar = CNCC(=O)O; X58 = NCCCCC*
Assay: Exposed Polar Surface Area (EPSA)
Type: physicochemical
Conditions: SFC on Chirex 3014 column; sample 1 mM DMSO stock; read-out: EPSA
How it was run: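 Polarity descriptor in Å² derived from retention time using 8 calibration standards re-run every 20 compounds. Duplicate injections of 1 mM DMSO stock; linear 5–60% modifier gradient (20 mM ammonium formate in MeOH) with CO2 at 4 mL/min, 35 °C, on a Chirex 3014 column.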

| Structure (SMILES) | EPSA [A^2] |
| --- | --- |
| CC(=O)NCCCC[C@@H]1NC(=O)[C@H](Cc2c[nH]c3c(C)cccc23)NC(=O)[C@H]([C@@H](C)O)NC(=O)[C@H](CC(N)=O)NC(=O)[C@@H](NC(=O)CCOCCOCC[N+](C)(C)C)C(C)(C)SSC(C)(C)[C@@H](C(=O)N[C@@H](Cc2ccc(OCCCCC[N+](C)(C)C)cc2)C(=O)N[C@@H](Cc2ccc3ccccc3c2)C(=O)NC2(C(=O)N[C@@H](CCC(=O)O)C(=O)N[C@@H](CC(N)=O)C(=O)N[C@@H](Cc3cncc(C)c3)C(=O)N(C)CC(N)=O)CCOCC2)NC1=O [compound 505, cPEG3aCO-Pen(3)-N-T-7MeW-K(Ac)-Pen(3)-TMAPF-2Nal-THP-E-N-5MePyridinAla-Sar-CONH2] | 179 |
| CC(=O)NCCCC[C@@H]1NC(=O)[C@H](Cc2c[nH]c3c(C)cccc23)NC(=O)[C@H]([C@@H](C)O)NC(=O)[C@H](CC(N)=O)NC(=O)[C@@H](NC(=O)[C@@H](CCCNC(=N)N)NC(=O)CCOCCOCC[N+](C)(C)C)C(C)(C)SSC(C)(C)[C@@H](C(=O)N[C@@H](Cc2ccc(OCCNC(=N)N)cc2)C(=O)N[C@@H](Cc2ccc3ccccc3c2)C(=O)NC2(C(=O)N[C@@H](CCC(=O)O)C(=O)N[C@@H](CC(N)=O)C(=O)N[C@@H](Cc3cncc(C)c3)C(=O)N(C)CC(N)=O)CCOCC2)NC1=O [compound 508, cPEG3aCO-r-Pen(3)-N-T-7MeW-K(Ac)-Pen(3)-AEF(G)-2Nal-THP-E-N-5MePyridinAla-Sar-CONH2] ({Me3N+(CH2)2O(CH2)2O(CH2)2CO}-[dR][Pen]NT[Trp(7-Me)]K(Ac)[Pen]Y(Ethyl(2-guanidino))[2Nal][Thp]EN[3Pal(5-Me)][Sar]-NH2; disulfide 2-7) | 197 |
| CC(=O)NCCCC[C@@H]1NC(=O)[C@H](Cc2c[nH]c3c(-c4cccc(NC(C)=O)c4)cccc23)NC(=O)[C@H]([C@@H](C)O)NC(=O)[C@H](CC(N)=O)NC(=O)[C@@H](NC(=O)[C@@H](CCCC[N+](C)(C)C)NC(C)=O)C(C)(C)SSC(C)(C)[C@@H](C(=O)N[C@@H](Cc2ccc(OCCCCC[N+](C)(C)C)cc2)C(=O)N[C@@H](Cc2ccc3ccccc3c2)C(=O)NC2(C(=O)N[C@@H](CCC(=O)O)C(=O)N[C@@H](CC(N)=O)C(=O)N[C@@H](Cc3cncc(C)c3)C(=O)N(C)CC(N)=O)CCOCC2)NC1=O [compound 513, MeCO-k(Me)3-Pen(3)-N-T-7(3NAcPh)W-K(Ac)-Pen(3)-TMAPF-2Nal-THP-E-N-5MePyridinAla-Sar-CONH2] (Ac-[dLys(Me3)][Pen]NT[Trp(7-(3-AcNH-Ph))]K(Ac)[Pen]Y(X3)[2Nal][Thp]EN[3Pal(5-Me)][Sar]-NH2; disulfide 2-7) | 224 |
| CC(=O)NCCCC[C@@H]1NC(=O)[C@H](Cc2c[nH]c3c(C)cccc23)NC(=O)[C@H]([C@@H](C)O)NC(=O)[C@H](CC(N)=O)NC(=O)[C@@H](NC(=O)CCOCCOCC[N+](C)(C)C)C(C)(C)SSC(C)(C)[C@@H](C(=O)N[C@@H](Cc2ccc(OCCNC(=N)N)cc2)C(=O)N[C@@H](Cc2ccc3ccccc3c2)C(=O)NC2(C(=O)N[C@@H](CCC(=O)O)C(=O)N[C@@H](CC(N)=O)C(=O)N[C@@H](Cc3cncc(C)c3)C(=O)N(C)CC(N)=O)CCOCC2)NC1=O [compound 514, cPEG3aCO-Pen(3)-N-T-7MeW-K(Ac)-Pen(3)-AEF(G)-2Nal-THP-E-N-5MePyridinAla-Sar-CONH2] | 248 |
| CC(=O)N(C)CCCC[C@@H]1NC(=O)[C@H](Cc2c[nH]c3c(C)cccc23)NC(=O)[C@H]([C@@H](C)O)NC(=O)[C@H](CC(=O)N(C)C)NC(=O)[C@@H](NC(=O)CCOCCOCCN)C(C)(C)SSC(C)(C)[C@@H](C(=O)N[C@@H](Cc2ccc(OCCCCCN)cc2)C(=O)N[C@@H](Cc2ccc3ccccc3c2)C(=O)NC2(C(=O)N[C@@H](CCCCN(C)C(C)=O)C(=O)N[C@@H](CC(N)=O)C(=O)N[C@@H](Cc3cccnc3)C(=O)N(C)CC(=O)N(C)C)CCOCC2)NC1=O [compound 529, cPEG3AmCO-Pen(3)-N(N(Me)2)-T-7MeW-K(NMeAc)-Pen(3)-APF-2Nal-THP-K(NMeAc)-N-3Pya-Sar-CON(Me)2] (H-[PEG2][Pen]D(NMe2)T[Trp(7-Me)][Lys(Me)](Ac)[Pen]Y(X58)[2Nal][Thp][Lys(Me)](Ac)N[3Pal][Sar]-NMe2; disulfide 2-7) | 161 |
| CC(=O)NCCCC[C@@H]1NC(=O)[C@H](Cc2c[nH]c3c(-c4cccc(NC(C)=O)c4)cccc23)NC(=O)[C@H]([C@@H](C)O)NC(=O)[C@H](CC(N)=O)NC(=O)[C@@H](NC(=O)[C@@H](CCCC[N+](C)(C)C)NC(C)=O)C(C)(C)SSC(C)(C)[C@@H](C(=O)N[C@@H](Cc2ccc(OCCN)cc2)C(=O)N[C@@H](Cc2ccc3ccccc3c2)C(=O)NC2(C(=O)N[C@@H](CCC(=O)O)C(=O)N[C@@H](CC(N)=O)C(=O)N[C@@H](Cc3cncc(C)c3)C(=O)N(C)CC(N)=O)CCOCC2)NC1=O [compound 535, MeCO-k(Me)3-Pen(3)-N-T-7(3NAcPh)W-K(Ac)-Pen(3)-AEF-2Nal-THP-E-N-5MePyridinAla-Sar-CONH2] (Ac-[dLys(Me3)][Pen]NT[Trp(7-(3-AcNH-Ph))]K(Ac)[Pen][AEF][2Nal][Thp]EN[3Pal(5-Me)][Sar]-NH2; disulfide 2-7) | 190 |
| CC(=O)NCCCC[C@@H]1NC(=O)[C@H](Cc2c[nH]c3c(-c4cccc(NC(C)=O)c4)cccc23)NC(=O)[C@H]([C@@H](C)O)NC(=O)[C@H](CC(N)=O)NC(=O)[C@@H](NC(=O)[C@@H](CCCNC(=N)N)NC(=O)CCOCCOCC[N+](C)(C)C)C(C)(C)SSC(C)(C)[C@@H](C(=O)N[C@@H](Cc2ccc(OCCN)cc2)C(=O)N[C@@H](Cc2ccc3ccccc3c2)C(=O)NC2(C(=O)N[C@@H](CCC(=O)O)C(=O)N[C@@H](CC(N)=O)C(=O)N[C@@H](Cc3cncc(C)c3)C(=O)N(C)CC(N)=O)CCOCC2)NC1=O [compound 536, cPEG3aCO-r-Pen(3)-N-T-7(3NAcPh)W-K(Ac)-Pen(3)-AEF-2Nal-THP-E-N-5MePyridinAla-Sar-CONH2] ({Me3N+(CH2)2O(CH2)2O(CH2)2CO}-[dR][Pen]NT[Trp(7-(3-AcNH-Ph))]K(Ac)[Pen][AEF][2Nal][Thp]EN[3Pal(5-Me)][Sar]-NH2; disulfide 2-7) | 210 |
| CC(=O)NCCCC[C@@H]1NC(=O)[C@H](Cc2c[nH]c3cccc(C)c23)NC(=O)[C@H]([C@@H](C)O)NC(=O)[C@H](CC(N)=O)NC(=O)[C@@H](NC(C)=O)C(C)(C)SSC(C)(C)[C@@H](C(=O)N[C@@H](Cc2ccc(OCCCCC[N+](C)(C)C)cc2)C(=O)N[C@@H](Cc2ccc3ccccc3c2)C(=O)NC2(C(=O)N[C@@H](CCCCNC(C)=O)C(=O)N[C@@H](CC(N)=O)C(=O)N[C@@H](Cc3cccnc3)C(=O)N(C)CC(N)=O)CCCC2)NC1=O [compound 537, MeCO-Pen(3)-N-T-7MeW-K(Ac)-Pen(3)-TMAPF-2Nal-Acpx-K(Ac)-N-3Pya-Sar-CONH2] | 163 |
| CC(=O)NCCCC[C@@H]1NC(=O)[C@H](Cc2c[nH]c3c(-c4cccc(NC(C)=O)c4)cccc23)NC(=O)[C@H]([C@@H](C)O)NC(=O)[C@H](CC(N)=O)NC(=O)[C@@H](NC(=O)[C@@H](CCCNC(=N)N)NC(C)=O)C(C)(C)SSC(C)(C)[C@@H](C(=O)N[C@@H](Cc2ccc(OCCCCC[N+](C)(C)C)cc2)C(=O)N[C@@H](Cc2ccc3ccccc3c2)C(=O)NC2(C(=O)N[C@@H](CCC(=O)O)C(=O)N[C@@H](CC(N)=O)C(=O)N[C@@H](Cc3cncc(C)c3)C(=O)N(C)CC(N)=O)CCOCC2)NC1=O [compound 540, MeCO-r-Pen(3)-N-T-7(3NAcPh)W-K(Ac)-Pen(3)-TMAPF-2Nal-THP-E-N-5MePyridinAla-Sar-CONH2] (Ac-[dR][Pen]NT[Trp(7-(3-AcNH-Ph))]K(Ac)[Pen]Y(X3)[2Nal][Thp]EN[3Pal(5-Me)][Sar]-NH2; disulfide 2-7) | 183 |
| CC(=O)NCCCC[C@@H]1NC(=O)[C@H](Cc2c[nH]c3c(C)cccc23)NC(=O)[C@H]([C@@H](C)O)NC(=O)[C@H](CC(N)=O)NC(=O)[C@@H](NC(=O)[C@@H](CCCNC(=N)N)NC(=O)CCOCCOCC[N+](C)(C)C)C(C)(C)SSC(C)(C)[C@@H](C(=O)N[C@@H](Cc2ccc(OCCCCC[N+](C)(C)C)cc2)C(=O)N[C@@H](Cc2ccc3ccccc3c2)C(=O)NC2(C(=O)N[C@@H](CCC(=O)O)C(=O)N[C@@H](CC(N)=O)C(=O)N[C@@H](Cc3cncc(C)c3)C(=O)N(C)CC(N)=O)CCOCC2)NC1=O [compound 542, cPEG3aCO-r-Pen(3)-N-T-7MeW-K(Ac)-Pen(3)-TMAPF-2Nal-THP-E-N-5MePyridinAla-Sar-CONH2] ({Me3N+(CH2)2O(CH2)2O(CH2)2CO}-[dR][Pen]NT[Trp(7-Me)]K(Ac)[Pen]Y(X3)[2Nal][Thp]EN[3Pal(5-Me)][Sar]-NH2; disulfide 2-7) | 180 |
| CC(=O)NCCCC[C@@H]1NC(=O)[C@H](Cc2c[nH]c3c(C)cccc23)NC(=O)[C@H]([C@@H](C)O)NC(=O)[C@H](CC(N)=O)NC(=O)[C@@H](NC(C)=O)C(C)(C)SSC(C)(C)[C@@H](C(=O)N[C@@H](Cc2ccc(OCC[N+](C)(C)C)cc2)C(=O)N[C@@H](Cc2ccc3ccccc3c2)C(=O)NC2(C(=O)N[C@@H](CCCCNC(C)=O)C(=O)N[C@@H](CC(N)=O)C(=O)N[C@@H](Cc3cccnc3)C(=O)N(C)CC(N)=O)CCOCC2)NC1=O [compound 561, MeCO-Pen(3)-N-T-7MeW-K(Ac)-pen(3)-AEF(NMe3)-2Nal-THP-K(Ac)-N-3Pya-Sar-CONH2] | 163 |
| CC(=O)NCCCC[C@@H]1NC(=O)[C@H](Cc2c[nH]c3c(C)cccc23)NC(=O)[C@H]([C@@H](C)O)NC(=O)[C@H](CC(N)=O)NC(=O)[C@@H](NC(C)=O)C(C)(C)SSC(C)(C)[C@@H](C(=O)N[C@@H](Cc2ccc(OCC[N+]3(C)CCOCC3)cc2)C(=O)N[C@@H](Cc2ccc3ccccc3c2)C(=O)NC2(C(=O)N[C@@H](CCCCNC(C)=O)C(=O)N[C@@H](CC(N)=O)C(=O)N[C@@H](Cc3cccnc3)C(=O)N(C)CC(N)=O)CCOCC2)NC1=O [compound 562, MeCO-Pen(3)-N-T-7MeW-K(Ac)-Pen(3)-MMoEF-2Nal-THP-K(Ac)-N-3Pya-Sar-CONH2] | 166 |

From US20260022143A1, “Cyclic Peptide Inhibitors of IL-23” (JANSSEN PHARMACEUTICA NV, priority 2022, published 2026)
